Experimental data from patent publication US20240116877A1, “KIT KINASE INHIBITORS AND METHODS OF USE THEREOF” (Deciphera Pharmaceuticals, LLC, priority 2021, published 2024).
Where two headings read alike, the source gives them in different places.

How the values were obtained:
c-KIT kinase (uKIT) = c-KIT kinase (uKIT) (Homo sapiens (Human), UniProt P10721); test: Biochemical Assay for uKIT (coupled pyruvate kinase/lactate dehydrogenase assay); settings: Inhibition of biochemical activity of uKIT kinase; 1 mM ATP
c-KIT kinase (uKIT), sequence (P10721 other isoform, or with tags, fused parts or gaps): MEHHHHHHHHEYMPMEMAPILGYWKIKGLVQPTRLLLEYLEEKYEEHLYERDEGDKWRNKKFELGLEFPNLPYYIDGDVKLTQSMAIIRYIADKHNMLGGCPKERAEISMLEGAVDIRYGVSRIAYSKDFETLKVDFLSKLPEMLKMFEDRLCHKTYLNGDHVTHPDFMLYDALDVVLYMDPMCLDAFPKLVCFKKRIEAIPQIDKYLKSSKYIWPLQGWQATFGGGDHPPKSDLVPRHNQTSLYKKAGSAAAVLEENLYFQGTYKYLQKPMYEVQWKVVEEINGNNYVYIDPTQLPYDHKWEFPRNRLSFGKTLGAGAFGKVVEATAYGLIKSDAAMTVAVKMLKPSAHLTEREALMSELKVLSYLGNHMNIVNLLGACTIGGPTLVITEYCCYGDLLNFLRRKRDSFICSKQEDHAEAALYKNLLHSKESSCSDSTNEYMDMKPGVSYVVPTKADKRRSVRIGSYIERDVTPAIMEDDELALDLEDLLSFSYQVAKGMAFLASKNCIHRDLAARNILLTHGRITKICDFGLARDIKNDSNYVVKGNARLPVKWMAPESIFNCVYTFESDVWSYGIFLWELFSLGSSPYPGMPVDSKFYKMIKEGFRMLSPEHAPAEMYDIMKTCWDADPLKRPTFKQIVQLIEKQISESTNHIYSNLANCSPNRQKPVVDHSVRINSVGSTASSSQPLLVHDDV
Procedure: Biochemical Assay for uKIT
Activity of c-KIT kinase (SEQ. ID NO. 1 or SEQ. ID NO. 2) was determined spectroscopically using a coupled pyruvate kinase/lactate dehydrogenase assay that continuously monitors the ATP hydrolysis-dependent oxidation of NADH (e.g., Schindler et al. Science (2000) 289: 1938-1942). Assays were conducted in 384-well plates (100 μL final volume) using 16 nM (Decode, SEQ ID No. 1) or 4.36 nM (Signal Chem, SEQ. ID No. 2), 0.7 mg/mL PE4Y substrate, 1.5 units pyruvate kinase, 2.1 units lactate dehydrogenase, 1 mM phosphoenol pyruvate, 0.28 mM NADH and 1 mM ATP in assay buffer (100 mM Tris, pH 7.5, 15 mM MgCl2, 0.5 mM DTT, 0.1% octyl-glucoside, 0.002% (w/v) BSA, and 0.002% Triton X-100). Inhibition of KIT was measured by adding serial diluted test compound (final assay concentration of 1% DMSO). A decrease in absorption at 340 nm was monitored continuously for 6 h at 30° C. on a multi-mode microplate reader (BioTek). The reaction rate was calculated using the 2-3 h time frame. The reaction rate at each concentration of compound was converted to percent inhibition using controls (i.e., reaction with no test compound and reaction with a known inhibitor) and IC50 values were calculated using software routines in Prism (GraphPad software).

Ba/F3 KIT mutant cells = test: Ba/F3 mutant KIT Cell Proliferation Assays (resazurin); assay type: cell-based; settings: Mus musculus, BaF3
Procedure: Ba/F3 KIT Mutant Cell Line Transduction and Expansion
Several different KIT cDNA encoding various primary and secondary mutations were cloned into a pLV(Exp]-CMV>(cDNA):IRES:puro vector. These vectors were constructed and packaged by VectorBuilder.
Exponentially grown Ba/F3 cells (1×10^6 cells in 1 ml medium) were infected with 60 μl of viral suspension in a 6-well plate in the presence of mIL-3 (10 ng/ml) and polybrene (7.5 μg/ml) (Vector Builder) and incubated for 16 h. After 16 h, the cells were centrifuged, and viral supernatant was discarded. The cells were then re-suspended in fresh medium and allowed to recover for another day. After 72 h post infection, the cells were seeded with complete medium with mIL-3 and with 1 μg/ml puromycin added to medium for selection. After 48 h, cells without viral infection die, whereas successfully transduced cells were collected and changed to fresh medium with 5 ng/ml of IL-3. After a week or two with gradual withdrawal of mIL3 the cells that can continue to proliferate in the absence of mIL3 were exponentially expanded and were frozen down for banking.
Ba/F3 mutant KIT Cell Proliferation Assays
(§1) A serial dilution of test compound was dispensed into a 384-well black clear bottom plate (Corning, Corning, NY). Six hundred and twenty-five cells were added per well in 50 μL complete growth medium. Plates were incubated for 68 h at 37° C., 5% CO2, 95% humidity. At the end of the incubation period 10 μL of a 440 μM solution of resazurin (Sigma, St. Louis, MO) in PBS was added to each well and incubated for an additional 5 h at 37° C., 5% CO2, 95% humidity. Plates were read on a Synergy2 reader (Biotek, Winooski, VT) using an excitation of 540 nm and an emission of 600 nm. Data was analyzed using Prism software (Graphpad, San Diego, CA) to calculate IC50 values.

GIST 430 cells = test: GIST 430 Cell Proliferation Assay (resazurin); assay type: cell-based; settings: Homo sapiens; GIST430 cell proliferation
Procedure: GIST 430 Cell Proliferation Assay
as §1, with “a 96-well” for “a 384-well”, “NY). Five thousand” for “NY). Six hundred and twenty-five”, “in 200” for “in 50”, “for 115” for “for 68”, “at 37 degrees Celsius,” for “at 37° C.,”, “period 40” for “period 10”

[1] = Ba/F3 KIT AYdup-V654A mutant cell proliferation, read-out: AYdup-V654A IC50
[2] = Ba/F3 KIT exon11del-V654A mutant cell proliferation, read-out: exon11del-V654A IC50
[3] = Ba/F3 KIT exon11del-Y823D mutant cell proliferation, read-out: exon11del-Y823D IC50
[4] = Ba/F3 KIT AYdup mutant cell proliferation, read-out: AYdup IC50
[5] = Ba/F3 KIT AYdup-D816G mutant cell proliferation, read-out: AYdup-D816G IC50

IC50 (c-KIT kinase (uKIT)) | IC50 (Ba/F3 KIT mutant cells; [1]) | IC50 (Ba/F3 KIT mutant cells; [2]) | IC50 (Ba/F3 KIT mutant cells; [3]) | IC50 (Ba/F3 KIT mutant cells; [4]) | IC50 (Ba/F3 KIT mutant cells; [5]) | Structure (SMILES) | IC50 (GIST 430 cells)
10 to 100 nM | 10 to 100 nM | 10 to 100 nM | > 1000 nM |  |  | COCCOc1cc(F)c2c(Nc3ccc(NC(=O)CC(=O)NCC(C)C)cc3)ncnc2c1 [Example 81] | 10 to 100 nM
10 to 100 nM | 100 to 1000 nM | 10 to 100 nM |  |  |  | CN(C)C(=O)COc1cc(F)c2c(Nc3ccc(NC(=O)NCCC(C)(C)F)cc3)ncnc2c1 [Example 148] | 100 to 1000 nM
10 to 100 nM | 10 to 100 nM | ≤ 10 nM | 10 to 100 nM | ≤ 10 nM | 10 to 100 nM | COCCOc1cc(F)c2c(Nc3ccc(NC(=O)CC(=O)NC(C)(C)C(F)(F)F)cc3)ncnc2c1 [Example 130] | 10 to 100 nM
10 to 100 nM | 100 to 1000 nM | 10 to 100 nM | > 1000 nM |  |  | COCCOc1cc(F)c2c(Nc3ccc(NC(=O)C4(C(=O)NCC(C)C)CC4)cc3)ncnc2c1 [Example 71] | 100 to 1000 nM
100 to 1000 nM | 100 to 1000 nM | 10 to 100 nM | > 1000 nM |  |  | COCCOc1cc(F)c2c(Nc3ccc(NC(=O)COCC4CC4)cc3)ncnc2c1 [Example 57] | 10 to 100 nM
10 to 100 nM | 10 to 100 nM | 10 to 100 nM | 100 to 1000 nM |  |  | COCCOc1cc(F)c2c(Nc3ccc(NC(=O)CNC(=O)C(C)(C)C)cc3)ncnc2c1 [Example 103] | ≤ 10 nM
10 to 100 nM | 10 to 100 nM | ≤ 10 nM | > 1000 nM |  |  | COCCOc1cc(F)c2c(Nc3ccc(NC(=O)CC(=O)NC4(C(F)(F)F)CC4)cc3)ncnc2c1 [Example 129] | 10 to 100 nM
10 to 100 nM | 10 to 100 nM | 10 to 100 nM | 100 to 1000 nM |  |  | COCCOc1cc(F)c2c(Nc3ccc(NC(=O)CC(=O)NCCC(C)C)cc3)ncnc2c1 [Example 100] | 10 to 100 nM
10 to 100 nM | 10 to 100 nM | ≤ 10 nM | 100 to 1000 nM |  |  | COCCOc1cc(F)c2c(Nc3ccc(NC(=O)CNC(=O)CC(C)C)cc3)ncnc2c1 [Example 76] | ≤ 10 nM
10 to 100 nM | 10 to 100 nM | 10 to 100 nM | 10 to 100 nM |  |  | COCCOc1cc(F)c2c(Nc3ccc(NC(=O)CC(=O)N4CCCC[C@@H]4C(F)(F)F)cc3)ncnc2c1 [Example 170] | 10 to 100 nM
≤ 10 nM | 10 to 100 nM | ≤ 10 nM | 100 to 1000 nM |  |  | COCCOc1cc(F)c2c(Nc3ccc(NC(=O)CC(=O)NCCC(C)(C)C)cc3)ncnc2c1 [Example 82] | 10 to 100 nM
100 to 1000 nM | 10 to 100 nM | 10 to 100 nM | > 1000 nM |  |  | COCCOc1cc(F)c2c(Nc3ccc(NC(=O)CC(=O)N[C@H]4C[C@H](OC)C4)cc3)ncnc2c1 [Example 117] | 10 to 100 nM
10 to 100 nM | 10 to 100 nM | 10 to 100 nM | > 1000 nM |  |  | COCCOc1cc(F)c2c(Nc3ccc(NC(=O)NC(=O)CC4(C(F)(F)F)COC4)cc3)ncnc2c1 [Example 137] | 10 to 100 nM
≤ 10 nM | ≤ 10 nM | ≤ 10 nM | 10 to 100 nM |  |  | COCCOc1cc(F)c2c(Nc3ccc(NC(=O)CC(=O)NC4CC5(CCC5)C4)cc3)ncnc2c1 [Example 135] | ≤ 10 nM
≤ 10 nM | > 1000 nM | ≤ 10 nM | 100 to 1000 nM |  |  | COCCOc1cc(F)c2c(Nc3ccc(NC(=O)CC(=O)NCC4CCC4)cc3)ncnc2c1 [Example 90] | 10 to 100 nM
100 to 1000 nM | 100 to 1000 nM | 100 to 1000 nM |  |  |  | COCCOc1cc(F)c2c(Nc3ccc(NC(=O)CC(=O)NC4(C)COC4)cc3)ncnc2c1 [Example 144] | 100 to 1000 nM
10 to 100 nM | 10 to 100 nM | 10 to 100 nM | 100 to 1000 nM |  |  | COCCOc1cc(F)c2c(Nc3ccc(NC(=O)CC(=O)NCC(C)(C)F)cc3)ncnc2c1 [Example 89] | 10 to 100 nM
≤ 10 nM | ≤ 10 nM | 10 to 100 nM | 10 to 100 nM | ≤ 10 nM | 10 to 100 nM | CC(C)(F)CCNC(=O)Nc1ccc(Nc2ncnc3cc(OC[C@H]4CCCO4)cc(F)c23)cc1 [Example 161] | 10 to 100 nM
10 to 100 nM | ≤ 10 nM | 10 to 100 nM | 10 to 100 nM |  |  | COCCOc1cc(OC)c2c(Nc3ccc(NC(=O)CC(=O)NC4CCC4)cc3)ncnc2c1 [Example 183] | 10 to 100 nM
≤ 10 nM | 10 to 100 nM | 10 to 100 nM | 100 to 1000 nM | ≤ 10 nM | 10 to 100 nM | COCCOc1cc(F)c2c(Nc3ccc(NC(=O)CCCC(C)(C)F)cc3)ncnc2c1 [Example 45] | ≤ 10 nM
10 to 100 nM | 10 to 100 nM | 10 to 100 nM | > 1000 nM |  |  | COCCOc1cc(F)c2c(Nc3ccc(NC(=O)CN(C)C(=O)C(C)C)cc3)ncnc2c1 [Example 66] | 10 to 100 nM
10 to 100 nM | 10 to 100 nM | ≤ 10 nM | 10 to 100 nM | ≤ 10 nM | 10 to 100 nM | COCCOc1cc(F)c2c(Nc3ccc(NC(=O)CC(=O)NC4CC(C)(C)C4)cc3)ncnc2c1 [Example 112] | ≤ 10 nM
10 to 100 nM | 10 to 100 nM | ≤ 10 nM | 10 to 100 nM | ≤ 10 nM | 10 to 100 nM | CC(C)(C)CNC(=O)CC(=O)Nc1ccc(Nc2ncnc3cc(OCCN4CCOCC4)cc(F)c23)cc1 [Example 145] | 10 to 100 nM
10 to 100 nM | 10 to 100 nM | 10 to 100 nM | 100 to 1000 nM |  |  | COCCOc1cc(F)c2c(Nc3ccc(NC(=O)CC(=O)NCCC(C)(C)F)cc3)ncnc2c1 [Example 119] | 10 to 100 nM
≤ 10 nM | 10 to 100 nM | ≤ 10 nM | 10 to 100 nM |  |  | COCCOc1cc(F)c2c(Nc3ccc(NC(=O)NCCCC(C)(C)C#N)cc3)ncnc2c1 [Example 99] | ≤ 10 nM
100 to 1000 nM | 100 to 1000 nM | > 1000 nM | 100 to 1000 nM |  |  | COCCOc1cc(F)c2c(Nc3ccc(NC(=O)CC(=O)N(C(C)C)C(C)C)cc3)ncnc2c1 [Example 163] | 100 to 1000 nM
≤ 10 nM | 10 to 100 nM | ≤ 10 nM | 10 to 100 nM | ≤ 10 nM | 10 to 100 nM | COCCOc1cc(F)c2c(Nc3ccc(NC(=O)CC(=O)NC4CCCC4)cc3)ncnc2c1 [Example 92] | ≤ 10 nM
≤ 10 nM | 10 to 100 nM | 10 to 100 nM | 10 to 100 nM |  |  | CC(C)(F)CCNC(=O)Nc1ccc(Nc2ncnc3cc(OC4CCC4)cc(F)c23)cc1 [Example 174] | 100 to 1000 nM
